# Measurements as given in patent US20230256092A1, “COMBINED USE OF ANTI-CCR8 ANTIBODY AND CHEMOTHERAPEUTIC AGENT” (Shionogi & Co., Ltd., priority 2020, published 2023).
# How the values were obtained:
# Assay type in all cases: in vivo, mouse
# [1] = test system: breast cancer-derived 4T1 cells; experiment: Example 1: Balb/c mice inoculated with 4T1 cells, carboplatin combination; conditions: antibody 50 μg iv days 5, 8; carboplatin 114 mg/kg iv day 5; single groups 8, 12, 15, 18, 22 days after inoculation, combined from 8 days; Mann-Whitney U
# Protocol: (§1) The back of each Balb/c mouse (6 weeks old, female) was intracutaneously inoculated with 2×10^5 breast cancer-derived 4T1 cells (50 μL).
# (§2) To an anti-mouse CCR8 antibody single administration group, 50 μg (200 μL) of an anti-mouse CCR8 antibody (clone SA214G2, BioLegend, Inc.) was intravenously administered 5 and 8 days after tumor inoculation, and saline was intravenously administered at a volume of 11.4 mL/kg body weight 5 days after tumor inoculation (N=10). To a carboplatin single administration group, 50 μg (200 μL) of an isotype control antibody (clone LTF-2, Bio X Cell, Inc.) was intravenously administered 5 and 8 days after tumor inoculation, and carboplatin (trade name: PARAPLATIN, Bristol-Myers Squibb Company) at 114 mg/kg body weight was intravenously administered at a volume of 11.4 mL/kg body weight 5 days after tumor inoculation (N=10). […] Tumor volumes were measured every 3 to 4 days from 5 days after tumor inoculation. The tumor volume (mm^3) was measured in long diameter (mm)×short diameter (mm)×short diameter (mm)/2, and a significant difference test based on a Mann-Whitney U method (significance level: P<0.05) was conducted.
# [2] = test system: bladder cancer-derived MB49 cells; experiment: Example 4: C57BL/6 mice inoculated with MB49 cells, carboplatin or cisplatin combination; conditions: antibody 50 μg iv days 4, 7; carboplatin 40 mg/kg or cisplatin 3 mg/kg iv day 4; single groups 7, 10, 14, 17, 18 days; carboplatin combination from 10 days, cisplatin combination from 14 days; Mann-Whitney U
# Protocol: The back of each C57BL/6 mouse (6 weeks old, male) was intracutaneously inoculated with 2×10^5 bladder cancer-derived MB49 cells (50 μL).
# To an anti-mouse CCR8 antibody single administration group, 50 μg (200 μL) of an anti-mouse CCR8 antibody (clone SA214G2, BioLegend, Inc.) was intravenously administered 4 and 7 days after tumor inoculation, and saline was intravenously administered at a volume of 10 mL/kg body weight 4 days after tumor inoculation (N=10).
# To a carboplatin single administration group, 50 μg (200 uL) of an isotype control antibody (clone LTF-2, Bio X Cell, Inc.) was intravenously administered 4 and 7 days after tumor inoculation, and carboplatin (trade name: PARAPLATIN, Bristol-Myers Squibb Company) at 40 mg/kg body weight was intravenously administered at a volume of 10 mL/kg body weight 4 days after tumor inoculation (N=10). […]
# Tumor volumes were measured every 1 to 4 days from 4 days after tumor inoculation. The tumor volume (mm^3) was measured in long diameter (mm)×short diameter (mm)×short diameter (mm)/2, and a significant difference test based on a Mann-Whitney U method (significance level: P<0.05) was conducted. […]
# [3] = test system: breast cancer-derived 4T1 cells; experiment: Example 3: hCCR8-KI (KI/KI) mice inoculated with 4T1 cells, cisplatin combination; conditions: antibody 400 μg iv days 5, 8; cisplatin 8 mg/kg iv day 5; cisplatin single 8, 11, 13, 15, 18, 21, 25, 29 days, combined from 8 days; Mann-Whitney U
# Protocol: To an anti-human CCR8 antibody single administration group, 400 μg (200 μL) of an anti-human CCR8 antibody (humanized 10A11 antibody (light chain variable region: IGKV4-1 N53Q+G29R (SEQ ID NO: 59)/heavy chain variable region: IGHV3-15 T94R (SEQ ID NO: 41))) was intravenously administered 5 and 8 days after tumor inoculation, and saline was intravenously administered at a volume of 16 mL/kg body weight 5 days after tumor inoculation (N=10). To a cisplatin single administration group, 200 μL of a control solution (obtained by diluting a buffer solution used for the antibody with saline in line with an antibody dilution ratio) was intravenously administered 5 and 8 days after tumor inoculation, and cisplatin (trade name: RANDA, Nippon Kayaku Co., Ltd.) at 8 mg/kg body weight was intravenously administered at a volume of 16 mL/kg body weight 5 days after tumor inoculation (N=10). […] Tumor volumes were measured every 2 to 4 days from 5 days after tumor inoculation. The tumor volume (mm^3) was measured in long diameter (mm)×short diameter (mm)×short diameter (mm)/2, and a significant difference test based on a Mann-Whitney U method (significance level: P<0.05) was conducted.
# [4] = test system: lung cancer-derived ASB-XIV cells; experiment: Example 7: hCCR8-KI (KI/KI) mice inoculated with ASB-XIV cells, cisplatin combination; conditions: antibody 1 mg/kg iv and cisplatin 3 mg/kg iv day 5; 14, 17 and 19 days after tumor inoculation; Mann-Whitney U
# Protocol: To an anti-human CCR8 antibody single administration group, an anti-human CCR8 antibody (humanized 10A11 antibody (light chain variable region: IGKV4-1 N53Q+G29R (SEQ ID NO: 59)/heavy chain variable region: IGHV3-15 T94R (SEQ ID NO: 41))) at 1 mg/10 mL/kg body weight and saline at 10 mL/kg body weight were intravenously administered 5 days after tumor inoculation (N=10). To a cisplatin single administration group, a control solution at 10 mL/kg body weight and cisplatin (trade name: RANDA, Nippon Kayaku Co., Ltd.) at 3 mg/10 mL/kg body weight were intravenously administered 5 days after tumor inoculation (N=10). To an anti-human CCR8 antibody and cisplatin combined administration group, an anti-human CCR8 antibody at 1 mg/10 mL/kg body weight and cisplatin at 3 mg/10 mL/kg body weight were intravenously administered 5 days after tumor inoculation (N=10). To a control group, a control solution at 10 mL/kg body weight and saline at 10 mL/kg body weight were intravenously administered 5 days after tumor inoculation (N=10). Tumor volumes were measured every 2 to 5 days from 5 days after tumor inoculation. The tumor volume (mm^3) was measured in long diameter (mm)×short diameter (mm)×short diameter (mm)/2, and a significant difference test based on a Mann-Whitney U method (significance level: P<0.05) was conducted.
# [5] = test system: breast cancer-derived 4T1 cells; experiment: Example 2: Balb/c mice inoculated with 4T1 cells, gemcitabine combination; conditions: antibody 50 μg iv days 5, 8; gemcitabine 50 mg/kg iv day 5; gemcitabine single 8, 12, 15, 18, 22 days, combined from 8 days; Mann-Whitney U
# Protocol: as §1
# as §2, with “10” for “11.4”, “gemcitabine” for “carboplatin”, “GEMZAR, Eli Lilly Inc.)” for “PARAPLATIN, Bristol-Myers Squibb Company)”, “50” for “114”
# [6] = test system: lung cancer-derived ASB-XIV cells; experiment: Example 8: hCCR8-KI (KI/KI) mice inoculated with ASB-XIV cells, paclitaxel combination
# Protocol: To an anti-human CCR8 antibody single administration group, an anti-human CCR8 antibody (humanized 10A11 antibody (light chain variable region: IGKV4-1 N53Q+G29R (SEQ ID NO: 59)/heavy chain variable region: IGHV3-15 T94R (SEQ ID NO: 41))) at 0.5 mg/10 mL/kg body weight and saline at 10 mL/kg body weight were intravenously administered 5 days after tumor inoculation (N=10). To a paclitaxel single administration group, saline at 10 mL/kg body weight and paclitaxel (trade name: TAXOL, Bristol-Myers Squibb Company) at 8 mg/10 mL/kg body weight were intravenously administered 5 days after tumor inoculation (N=10). To an anti-human CCR8 antibody and paclitaxel combined administration group, an anti-human CCR8 antibody at 0.5 mg/10 mL/kg body weight and paclitaxel at 8 mg/10 mL/kg body weight were intravenously administered 5 days after tumor inoculation (N=10). To a control group, saline was intravenously administered at 20 mL/kg 5 days after tumor inoculation (N=10). Tumor volumes were measured every 2 to 5 days from 5 days after tumor inoculation. The tumor volume (mm^3) was measured in long diameter (mm)×short diameter (mm)×short diameter (mm)/2, and a significant difference test based on a Student's T: one-sided test method (significance level: P<0.05) was conducted.
smiles,measurement,setting,value
N.N.O=C([O-])C1(C(=O)[O-])CCC1.[Pt+2] [carboplatin],tumor volume as compared to the control group,[1],no significant difference
same,tumor volume as compared to the control group,[2],no significant difference
"N.N.[Cl][Pt][Cl] [cisplatin, reference compound]",tumor volume as compared to the control group,[3],significant decrease
same,tumor volume as compared to the control group,[2],no significant difference
same,tumor volume as compared to the control group,[4],no significant decrease
Nc1ccn([C@@H]2O[C@H](CO)[C@@H](O)C2(F)F)c(=O)n1 [gemcitabine],tumor volume as compared to the control group,[5],significant decrease
CC(=O)O[C@H]1C(=O)[C@@]2(C)[C@H]([C@H](OC(=O)c3ccccc3)[C@]3(O)C[C@H](OC(=O)[C@H](O)[C@@H](NC(=O)c4ccccc4)c4ccccc4)C(C)=C1C3(C)C)[C@]1(OC(C)=O)CO[C@@H]1C[C@@H]2O [paclitaxel],tumor volume as compared to the control group,"[6]; antibody 0.5 mg/kg iv and paclitaxel 8 mg/kg iv day 5, antibody single 10, 12, 14, 18 days, paclitaxel single 10 and 12 days, combined from 10 days, Student's T one-sided",significant decrease
same,"tumor volume as compared to the control group, later time points","[6]; paclitaxel 8 mg/kg iv day 5, 14 and 17 days after tumor inoculation",the significant difference disappeared
